The results in this text go back to patent US8088570B2, “Method for screening an agent for preventing or ameliorating wrinkles” (Kao Corporation, priority 2006, dated 2012).

The structures appear in SMILES notation.

The subject of experiment [1] is chronically ultraviolet-irradiated mice (wrinkle formation model). Nature of the experiment: Wrinkle-improving effect of CLP, visual observation score in chronically ultraviolet-irradiated hairless mice (Reference Example 1). The class given is in vivo, hairless mice (Hr-1-ICR). The settings on record: 5 w/v % CLP, 100 μL on dorsal skin for 6 weeks after 12 weeks of UV irradiation. An excerpt:
An experimental system of the chronic and continuous exposure of hairless mice to ultraviolet rays of minimum erythema dose (hereinafter, referred to as 1 MED) or lower (J. Pharm. Pharmacol. 1992; 44: 379-386; and Photochem. Photobiol., 1991; 53: 109-112) was used as a wrinkle formation model to perform a test of wrinkle improvement of 1-carbamimidoyl-L-proline (CLP) in vivo.
The mice used were hairless mice (Hr-1-ICR) produced from crossing between Hr-1 (Skh-1) hairless mice and ICR mice. Toshiba SE20 lamps were used as an ultraviolet source, and ultraviolet doses used were measured with UV-RADIOMETER (UVR-305/365D, Eisai). The 6- to 10-week-old hairless mice were exposed once a day and five times a week for 12 consecutive weeks to ultraviolet rays of 1 MED or lower, that is, at a dose of 470 J/m^2 during the 0th (at the start of irradiation) to first week, at a dose of 530 J/m^2 during the first to second week, at a dose of 600 J/m^2 during the second to third week, and at a dose of 670 J/m^2 during the fourth and subsequent weeks, to prepare chronically ultraviolet-irradiated mice. […]
The degree of wrinkles formed on the dorsal skins of the mice was determined at the start of CLP application and on the 6th week according to a visual observation score with reference to the documents described above. The score was evaluated on a scale of 7 using the scores below and mean values. […]

Experiment [2] has as its system K14 protein. Nature of the experiment: Epidermal K14 protein level by western blotting, wrinkle formation test (Example 2). The settings on record: 4% CLP applied with UV irradiation, 12 weeks. The class given is in vivo, hairless mice. As to the method:
(§1) After the dorsal skins collected from the mice were cooled on ice immediately after treatment in distilled water at 60° C. for 1 minute, epidermal portions were separated from the dermis with a spatula. The obtained epidermal portions (containing the stratum corneum) were homogenized in a urea buffer (8 M urea, 50 mM tris-HCl (pH 7.6), 100 mM mercaptoethanol, 1 mM dithiothreitol, and protease inhibitors) to extract proteins. Insoluble matter was removed by centrifugation and supernatant collection. Following the measurement of the total protein concentration (RD DC Protein Assay Kit, Bio-Rad Laboratories Inc.), samples were prepared at the same concentrations. The samples were supplemented with laemmli buffer and treated at 90 to 100° C. for 3 to 5 minutes to give samples for electrophoresis. The samples were electrophoresed on 5 to 15% gradient acrylamide gel or 12.5% acrylamide gel (Bio Rad) at 60 V for 3 hours and blotted onto a nitrocellulose membrane at 250 mA for 1 hour under ice cooling. […] Labeling was performed by using peroxidase-labeled secondary antibodies, and color was developed by chemiluminescence method (ECL-Plus, Amersham Pharmacia Biotech) and detected with X-ray films. Quantification was performed with Adobe Photoshop (Adobe Systems Incorporated). […]
(§2) Moreover, the quantification of keratin proteins was performed by western blotting in the same way as in Example 1.
For orientation: In western blotting, separated proteins are transferred to a membrane and probed.

Experiment [3] relates to hairless mice exposed to ultraviolet rays (wrinkle formation). Put plainly: Inhibitory effect of CLP on wrinkle formation, visual observation score (Example 2). The class given is in vivo. The settings on record: 4% (Wt/Vol %) CLP, 100 μL applied immediately after each UV irradiation, 12 weeks. How it is done:
The degree of wrinkles formed on the dorsal skins of the mice was determined at the start of CLP application and on the 6th week according to a visual observation score with reference to the documents described above. The score was evaluated on a scale of 7 using the scores below and mean values.
Score 0: no wrinkle observed
Score 1: wrinkles slightly observed
Score 2: wrinkles observed
Score 3: wrinkles remarkably observed
The same 6- to 8-week-old hairless mice as in Reference Example 1 were used and exposed to ultraviolet rays of 1 MED (minimum erythema dose) or lower. Immediately after the ultraviolet irradiation, procedures for applying 100 μL of 4% (Wt/Vol %) CLP solution (solvent: 30 Vol/Vol % ethanol/water solution) or vehicle control to the whole dorsal skin of each of the mice were performed once a day and five times a week for 12 consecutive weeks. The irradiation dose was 470 J/m^2 during the 0th (at the start of irradiation) to first week, 530 J/m^2 during the first to second week, 600 J/m^2 during the second to third week, and 670 J/m^2 during the fourth and subsequent weeks. Each of the groups comprised 10 to 12 mice.
The degree of wrinkles formed on the dorsal skins of the mice was determined after 12 weeks from the start of ultraviolet irradiation according to the visual observation score in the same way as in Reference Example 1.

Experiment [4] concerns K14 protein. Put plainly: Epidermal K14 protein level by western blotting in wrinkle model mice (Example 1). The format is in vivo, hairless mice. The settings on record: 5 w/v % CLP applied 6 weeks after 9 weeks of UV irradiation. How it is done:
(§3) Six-week-old hairless mice of the same species as in Reference Example 1 were exposed for 9 consecutive weeks to ultraviolet rays at a dose of 470 J/m^2 during the 0th (at the start of irradiation) to first week, at a dose of 530 J/m^2 during the first to second week, at a dose of 600 J/m^2 during the second to third week, and at a dose of 670 J/m^2 during the fourth and subsequent weeks, to prepare chronically ultraviolet-irradiated mice (wrinkle model mice). Then, 100 μL of 5 w/v % CLP solution (50 vol % ethanol solution) was applied once […] and five times a week for 6 consecutive weeks to the whole dorsal skin of each of the mice to examine changes in epidermal keratin protein levels. For controls, 50 vol % ethanol solution (solvent control) and unirradiated age-matched mice (unirradiated mice) were used. Each of the groups comprised 3 mice.
(§4) After the dorsal skins collected from the mice were cooled on ice immediately after treatment in distilled water at 60° C. for 1 minute, epidermal portions were separated from the dermis with a spatula. […] Labeling was performed by using peroxidase-labeled secondary antibodies, and color was developed by chemiluminescence method (ECL-Plus, Amersham Pharmacia Biotech) and detected with X-ray films. Quantification was performed with Adobe Photoshop (Adobe Systems Incorporated).

Experiment [5] concerns K16 protein. Nature of the experiment: Epidermal K16 protein level by western blotting in wrinkle model mice (Example 1). The settings on record: 5 w/v % CLP applied 6 weeks after 9 weeks of UV irradiation; compared with solvent control and unirradiated mice. The format is in vivo, hairless mice. How it is done: as §3, §4
Experiment [6] deals with K1 protein. Nature of the experiment: Epidermal K1 protein level by western blotting, wrinkle formation test (Example 2). The format is in vivo, hairless mice. The settings on record: 4% CLP applied with UV irradiation, 12 weeks. How it is done: as §1, §2
The test system of experiment [7] is K6 protein. Put plainly: Epidermal K6 protein level by western blotting in wrinkle model mice (Example 1). The settings on record: 5 w/v % CLP applied 6 weeks after 9 weeks of UV irradiation; compared with solvent control and unirradiated mice. The class given is in vivo, hairless mice. How it is done:
as §3, §4

For experiment [8], the system named is K5 protein. Put plainly: Epidermal K5 protein level by western blotting, wrinkle formation test (Example 2). The format is in vivo, hairless mice. The settings on record: 4% CLP applied with UV irradiation, 12 weeks. How it is done: as §1, §2
The subject of experiment [9] is K1 protein. Nature of the experiment: Epidermal K1 protein level by western blotting in wrinkle model mice (Example 1). The class given is in vivo, hairless mice. The settings on record: 5 w/v % CLP applied 6 weeks after 9 weeks of UV irradiation. How it is done:
as §3, §4

In experiment [10] the test system is K5 protein. Put plainly: Epidermal K5 protein level by western blotting in wrinkle model mice (Example 1). The format is in vivo, hairless mice. The settings on record: 5 w/v % CLP applied 6 weeks after 9 weeks of UV irradiation. As to the method: as §3, §4
In experiment [11] the test system is K16 protein. Nature of the experiment: Epidermal K16 protein level by western blotting, wrinkle formation test (Example 2). The class given is in vivo, hairless mice. The settings on record: 4% CLP applied with UV irradiation, 12 weeks. How it is done:
as §1, §2

In experiment [12] the test system is K10 protein. Put plainly: Epidermal K10 protein level by western blotting, wrinkle formation test (Example 2). The settings on record: 4% CLP applied with UV irradiation, 12 weeks. The format is in vivo, hairless mice. How it is done:
as §1, §2

The subject of experiment [13] is K6 protein. Put plainly: Epidermal K6 protein level by western blotting, wrinkle formation test (Example 2). The format is in vivo, hairless mice. The settings on record: 4% CLP applied with UV irradiation, 12 weeks. As to the method: as §1, §2
The test system of experiment [14] is K10 protein. Nature of the experiment: Epidermal K10 protein level by western blotting in wrinkle model mice (Example 1). The class given is in vivo, hairless mice. The settings on record: 5 w/v % CLP applied 6 weeks after 9 weeks of UV irradiation. As to the method: as §3, §4

For `N=C(N)N1CCC[C@H]1C(=O)O` [CLP, 1-carbamimidoyl-L-proline], in [1], the “visual observation score of wrinkles, 6th week compared with at the start” value is recorded as “significantly decreased”. Besides, in [1] (control 30 vol % ethanol), the “visual observation score of wrinkles, compared with control group on the 6th week” value is on record as “significantly lower”. Further, the “K14 protein level compared with vehicle control group” value in experiment [2] is “no significant difference”. The “wrinkle formation (visual observation score) compared with vehicle control group” value in [3] is “significant inhibitory effect”. Also, the “epidermal K14 protein level” value in experiment [4] is recorded as “No significant difference”. The “epidermal K16 protein level” value in [5] was “decreased to unirradiated levels”. The “K1 protein level compared with vehicle control group” value in [6] is reported as “no significant difference”. Further, the “epidermal K6 protein level” value in experiment [7] is “decreased to unirradiated levels”. For the same compound, the “K5 protein level compared with vehicle control group” value in experiment [8] was “no significant difference”. The “epidermal K1 protein level” value in experiment [9] is listed as “No significant difference”. Moreover, the “epidermal K5 protein level” value in [10] was “hardly changed”. Moreover, the “K16 protein level compared with vehicle control group” value in experiment [11] is listed as “significantly decreased”. Further, the “K10 protein level compared with vehicle control group” value in experiment [12] is “no significant difference”. In experiment [13], the “K6 protein level compared with vehicle control group” value is “significantly decreased”. In addition, in experiment [14], the “epidermal K10 protein level” value is given as “No significant difference”.
